Data taken from PubChem BioAssay AID270 (DTP/NCI, 2004).
Inconclusive results are not listed.

System: BDF1 mice, s.c. Lewis lung carcinoma, T/C %
Test: NCI In Vivo Anticancer Drug Screen. Data for tumor model Lewis Lung Carcinoma (subcutaneous) in B6D2F1 (BDF1) mice
Outline: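 The value reflects a ratio in which the treated cohort's survival time or tumour size is compared against mice receiving only vehicle.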

ClCC[N-]CC[N-]CCCl.ClCC[N-]CC[N-]CCCl.[O-][Cl+3]([O-])([O-])O.[Zn+2]
T/C (endpoint: median survival time, dose: 5.0 mg/kg/injection, schedule: Q01DX009 (ip), vehicle: saline with Tween-80, higher = longer survival): 101 % of control
T/C (endpoint: median survival time, dose: 10.0 mg/kg/injection, schedule: Q01DX009 (ip), vehicle: saline with Tween-80, higher = longer survival): 101 % of control
T/C (endpoint: median survival time, dose: 20.0 mg/kg/injection, schedule: Q01DX009 (ip), vehicle: saline with Tween-80, higher = longer survival): 105 % of control
T/C (endpoint: median survival time, dose: 40.0 mg/kg/injection, schedule: Q01DX009 (ip), vehicle: saline with Tween-80, higher = longer survival): 99 % of control

CCCCC[C@H](O)/C=C/[C@H]1[C@H](O)CC(=O)[C@@H]1C/C=C\CCCC(=O)O
T/C (endpoint: median survival time, dose: 50.0 mg/kg/injection, schedule: Q04DX002 (ip), vehicle: saline with Tween-80, higher = longer survival): 95 % of control

CCC[CH2][Sn]1([CH2]CCC)[O]C(=O)C[S]1
T/C (endpoint: mean tumor weight, dose: 4.0 mg/kg/injection, schedule: Q01DX011 (ip), vehicle: saline, higher = larger tumour): 88 % of control
T/C (endpoint: mean tumor weight, dose: 8.0 mg/kg/injection, schedule: Q01DX011 (ip), vehicle: saline, higher = larger tumour): 50 % of control
T/C (endpoint: mean tumor weight, dose: 16.0 mg/kg/injection, schedule: Q01DX011 (ip), vehicle: saline, higher = larger tumour): 100 % of control

Cc1nnc(N)s1
T/C (endpoint: mean tumor weight, dose: 133.0 mg/kg/injection, schedule: Q01DX011 (ip), vehicle: other, higher = larger tumour): 80 % of control
T/C (endpoint: mean tumor weight, dose: 200.0 mg/kg/injection, schedule: Q01DX011 (ip), vehicle: other, higher = larger tumour): 77 % of control
T/C (endpoint: mean tumor weight, dose: 300.0 mg/kg/injection, schedule: Q01DX011 (ip), vehicle: other, higher = larger tumour): 79 % of control

CN(C)CC/C=C1\c2ccccc2Sc2ccc(Cl)cc21
T/C (endpoint: median survival time, dose: 1.87 mg/kg/injection, schedule: Q01DX001 (ip), vehicle: Klucel (hydroxypropylcellulose) (HPC), higher = longer survival): 102 % of control
T/C (endpoint: median survival time, dose: 3.75 mg/kg/injection, schedule: Q01DX001 (ip), vehicle: Klucel (hydroxypropylcellulose) (HPC), higher = longer survival): 109 % of control
T/C (endpoint: median survival time, dose: 7.5 mg/kg/injection, schedule: Q01DX001 (ip), vehicle: Klucel (hydroxypropylcellulose) (HPC), higher = longer survival): 88 % of control
T/C (endpoint: median survival time, dose: 15.0 mg/kg/injection, schedule: Q01DX001 (ip), vehicle: Klucel (hydroxypropylcellulose) (HPC), higher = longer survival): 102 % of control

O=NN(CCCl)C(=O)NC(CCC(=O)O)C(=O)O (configuration not stated)
T/C (endpoint: median survival time, dose: 81.0 mg/kg/injection, schedule: Q01DX001 (ip), vehicle: saline with Tween-80, higher = longer survival): 99 % of control
T/C (endpoint: median survival time, dose: 122.0 mg/kg/injection, schedule: Q01DX001 (ip), vehicle: saline with Tween-80, higher = longer survival): 95 % of control
T/C (endpoint: median survival time, dose: 183.0 mg/kg/injection, schedule: Q01DX001 (ip), vehicle: saline with Tween-80, higher = longer survival): 157 % of control
T/C (endpoint: median survival time, dose: 184.0 mg/kg/injection, schedule: Q01DX001 (ip), vehicle: saline with Tween-80, higher = longer survival): 117 % of control
T/C (endpoint: median survival time, dose: 275.0 mg/kg/injection, schedule: Q01DX001 (ip), vehicle: saline with Tween-80, higher = longer survival): 107 % of control

CC[C@@]1(O)C[C@H](OC2CC(N(C)C)C(OC3CC(O)C(OC4CCC(=O)C(C)O4)C(C)O3)C(C)O2)c2c(cc3c(c2O)C(=O)c2c(O)cccc2C3=O)[C@H]1C(=O)OC (some centres not stated)
T/C (endpoint: median survival time, dose: 1.5 mg/kg/injection, schedule: Q01DX009 (ip), vehicle: Klucel (hydroxypropylcellulose) (HPC), higher = longer survival): 104 % of control

CO[C@@]12[C@H](COC(N)=O)C3=C(C(=O)C(C)=C(N)C3=O)N1C[C@@H]1N[C@@H]12
T/C (endpoint: median survival time, dose: 0.12 mg/kg/injection, schedule: Q01DX009 (ip), vehicle: saline, higher = longer survival): 98 % of control
T/C (endpoint: median survival time, dose: 0.25 mg/kg/injection, schedule: Q01DX009 (ip), vehicle: Klucel (hydroxypropylcellulose) (HPC), higher = longer survival): 96 % of control
T/C (endpoint: median survival time, dose: 0.25 mg/kg/injection, schedule: Q01DX009 (ip), vehicle: saline, higher = longer survival): 98 % of control
T/C (endpoint: median survival time, dose: 0.5 mg/kg/injection, schedule: Q01DX009 (ip), vehicle: Klucel (hydroxypropylcellulose) (HPC), higher = longer survival): 96 % of control
T/C (endpoint: median survival time, dose: 0.5 mg/kg/injection, schedule: Q01DX009 (ip), vehicle: saline, higher = longer survival): 96 % of control
T/C (endpoint: median survival time, dose: 1.0 mg/kg/injection, schedule: Q01DX009 (ip), vehicle: saline, higher = longer survival): 103 % of control

COC1CCC(NC(=O)N(CCCl)N=O)CC1 (configuration not stated)
T/C (endpoint: median survival time, dose: 16.0 mg/kg/injection, schedule: Q01DX001 (ip), vehicle: saline with Tween-80, higher = longer survival): 121 % of control
T/C (endpoint: median survival time, dose: 82.0 mg/kg/injection, schedule: Q01DX001 (ip), vehicle: saline with Tween-80, higher = longer survival): 111 % of control

CCCCN(C)N=Nc1ccc(CCC(=O)OCC)cc1
T/C (endpoint: median tumor weight (est.), dose: 72.0 mg/kg/injection, schedule: Q01DX009 (ip), vehicle: saline with Tween-80, higher = larger tumour): 107 % of control
T/C (endpoint: median tumor weight (est.), dose: 145.0 mg/kg/injection, schedule: Q01DX009 (ip), vehicle: saline with Tween-80, higher = larger tumour): 95 % of control
T/C (endpoint: median tumor weight (est.), dose: 290.0 mg/kg/injection, schedule: Q01DX009 (ip), vehicle: saline with Tween-80, higher = larger tumour): 61 % of control
